For 15 compounds, Kd results are on record in ChEMBL document CHEMBL3991601, “The target landscape of clinical kinase drugs” (Science, 2017).

Calls of active or inactive are those of the source. For most assays here, no stated cut-off is given here; in the data, actives have a measured Kd and inactives only a lower limit.

Experiment [1] concerns the target T1, Cytochrome c1, heme protein, mitochondrial (Homo sapiens, UniProt P08574).
T1 sequence (P08574 whole entry): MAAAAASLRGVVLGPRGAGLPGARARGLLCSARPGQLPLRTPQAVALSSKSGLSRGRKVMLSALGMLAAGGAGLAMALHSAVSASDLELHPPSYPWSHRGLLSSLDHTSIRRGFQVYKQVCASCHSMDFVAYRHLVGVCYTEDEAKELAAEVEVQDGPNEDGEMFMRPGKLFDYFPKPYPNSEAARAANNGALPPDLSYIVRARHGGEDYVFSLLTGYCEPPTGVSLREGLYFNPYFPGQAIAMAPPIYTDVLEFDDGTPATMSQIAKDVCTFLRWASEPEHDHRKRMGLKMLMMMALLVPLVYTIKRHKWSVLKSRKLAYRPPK

Experiment [2] deals with Fibroblast growth factor receptor 1 (Homo sapiens, UniProt P11362).
The target in experiment [3] is T2, ATP-dependent 6-phosphofructokinase, platelet type (Homo sapiens, UniProt Q01813).
T2 sequence (Q01813 whole entry): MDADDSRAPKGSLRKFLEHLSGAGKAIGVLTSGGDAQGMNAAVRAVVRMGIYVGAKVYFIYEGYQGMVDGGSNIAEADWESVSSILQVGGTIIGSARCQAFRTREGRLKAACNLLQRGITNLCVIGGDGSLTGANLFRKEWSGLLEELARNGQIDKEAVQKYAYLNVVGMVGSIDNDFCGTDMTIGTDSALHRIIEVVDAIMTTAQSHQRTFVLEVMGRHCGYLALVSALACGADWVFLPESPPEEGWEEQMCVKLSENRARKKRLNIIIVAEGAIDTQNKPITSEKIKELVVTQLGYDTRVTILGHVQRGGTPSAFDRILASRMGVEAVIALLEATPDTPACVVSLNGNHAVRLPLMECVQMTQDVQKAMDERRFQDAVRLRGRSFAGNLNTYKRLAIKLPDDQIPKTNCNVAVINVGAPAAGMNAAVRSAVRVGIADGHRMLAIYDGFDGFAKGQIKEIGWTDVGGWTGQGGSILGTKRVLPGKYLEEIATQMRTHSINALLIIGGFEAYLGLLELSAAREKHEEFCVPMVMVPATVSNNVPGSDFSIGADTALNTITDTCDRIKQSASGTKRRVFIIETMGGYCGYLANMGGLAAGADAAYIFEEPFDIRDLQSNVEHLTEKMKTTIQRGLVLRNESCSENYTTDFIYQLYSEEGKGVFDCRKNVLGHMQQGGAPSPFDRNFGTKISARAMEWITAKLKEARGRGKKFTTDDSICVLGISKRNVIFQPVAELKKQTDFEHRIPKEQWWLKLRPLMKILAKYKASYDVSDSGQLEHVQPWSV

Experiment [4] concerns the target Elongation factor Tu, mitochondrial (Homo sapiens, UniProt P49411).
In experiment [5] the target is T3, Serine/threonine-protein kinase D2 (Homo sapiens, UniProt Q9BZL6).
T3 sequence (Q9BZL6 whole entry): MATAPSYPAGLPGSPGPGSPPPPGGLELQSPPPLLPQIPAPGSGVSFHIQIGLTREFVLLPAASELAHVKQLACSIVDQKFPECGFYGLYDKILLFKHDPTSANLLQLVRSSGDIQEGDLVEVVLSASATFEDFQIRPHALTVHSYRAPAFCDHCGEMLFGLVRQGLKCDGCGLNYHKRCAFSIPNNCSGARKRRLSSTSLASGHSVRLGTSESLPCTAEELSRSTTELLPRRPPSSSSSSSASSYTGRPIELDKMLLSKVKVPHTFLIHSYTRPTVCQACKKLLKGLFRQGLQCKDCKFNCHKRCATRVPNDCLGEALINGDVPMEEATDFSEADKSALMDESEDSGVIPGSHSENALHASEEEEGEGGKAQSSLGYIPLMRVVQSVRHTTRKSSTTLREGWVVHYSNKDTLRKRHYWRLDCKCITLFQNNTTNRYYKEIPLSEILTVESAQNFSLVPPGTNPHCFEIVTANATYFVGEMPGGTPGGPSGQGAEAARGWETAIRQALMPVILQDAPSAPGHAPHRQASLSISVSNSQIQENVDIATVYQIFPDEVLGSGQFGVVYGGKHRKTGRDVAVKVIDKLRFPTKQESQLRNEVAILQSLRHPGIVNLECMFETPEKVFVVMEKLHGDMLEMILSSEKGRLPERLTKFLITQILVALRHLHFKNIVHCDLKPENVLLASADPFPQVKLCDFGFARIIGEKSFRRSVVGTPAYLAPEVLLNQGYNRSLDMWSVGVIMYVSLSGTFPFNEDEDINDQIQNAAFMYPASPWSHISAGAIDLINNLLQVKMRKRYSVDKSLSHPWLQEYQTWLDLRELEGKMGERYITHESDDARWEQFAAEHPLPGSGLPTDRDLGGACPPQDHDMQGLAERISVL

In experiment [6] the target is Calcium/calmodulin-dependent protein kinase kinase 2 (Homo sapiens, UniProt Q96RR4).
Experiment [7] concerns the target T4, Phosphorylase b kinase gamma catalytic chain, liver/testis isoform (Homo sapiens, UniProt P15735).
T4 sequence (P15735 whole entry): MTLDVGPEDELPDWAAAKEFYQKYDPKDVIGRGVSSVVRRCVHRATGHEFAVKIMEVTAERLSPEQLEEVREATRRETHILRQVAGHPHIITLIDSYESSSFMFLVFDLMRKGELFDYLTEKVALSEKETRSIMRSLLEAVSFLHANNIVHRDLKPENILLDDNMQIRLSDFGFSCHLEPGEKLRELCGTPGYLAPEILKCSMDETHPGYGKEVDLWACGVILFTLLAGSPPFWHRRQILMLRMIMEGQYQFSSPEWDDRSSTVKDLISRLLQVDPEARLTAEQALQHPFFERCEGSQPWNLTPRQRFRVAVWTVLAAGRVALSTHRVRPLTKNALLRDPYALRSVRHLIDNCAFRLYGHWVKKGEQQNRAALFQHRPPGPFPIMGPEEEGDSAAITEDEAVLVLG

The target of experiment [8] is Cyclin-dependent kinase 1 (Homo sapiens, UniProt P06493).
Experiment [9] concerns the target Guanine nucleotide-binding protein G(i) subunit alpha-2 (Homo sapiens, UniProt P04899).

Chain of Cyclin-dependent kinase 1 (P06493 whole entry): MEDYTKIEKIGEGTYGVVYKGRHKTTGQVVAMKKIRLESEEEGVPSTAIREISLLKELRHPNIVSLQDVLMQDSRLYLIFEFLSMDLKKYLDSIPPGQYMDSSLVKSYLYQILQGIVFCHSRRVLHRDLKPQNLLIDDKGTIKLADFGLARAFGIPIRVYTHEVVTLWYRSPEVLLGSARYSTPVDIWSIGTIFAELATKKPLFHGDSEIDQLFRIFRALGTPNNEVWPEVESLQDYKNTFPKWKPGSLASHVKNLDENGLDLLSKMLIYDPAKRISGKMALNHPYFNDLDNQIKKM
Chain of Fibroblast growth factor receptor 1 (P11362 whole entry): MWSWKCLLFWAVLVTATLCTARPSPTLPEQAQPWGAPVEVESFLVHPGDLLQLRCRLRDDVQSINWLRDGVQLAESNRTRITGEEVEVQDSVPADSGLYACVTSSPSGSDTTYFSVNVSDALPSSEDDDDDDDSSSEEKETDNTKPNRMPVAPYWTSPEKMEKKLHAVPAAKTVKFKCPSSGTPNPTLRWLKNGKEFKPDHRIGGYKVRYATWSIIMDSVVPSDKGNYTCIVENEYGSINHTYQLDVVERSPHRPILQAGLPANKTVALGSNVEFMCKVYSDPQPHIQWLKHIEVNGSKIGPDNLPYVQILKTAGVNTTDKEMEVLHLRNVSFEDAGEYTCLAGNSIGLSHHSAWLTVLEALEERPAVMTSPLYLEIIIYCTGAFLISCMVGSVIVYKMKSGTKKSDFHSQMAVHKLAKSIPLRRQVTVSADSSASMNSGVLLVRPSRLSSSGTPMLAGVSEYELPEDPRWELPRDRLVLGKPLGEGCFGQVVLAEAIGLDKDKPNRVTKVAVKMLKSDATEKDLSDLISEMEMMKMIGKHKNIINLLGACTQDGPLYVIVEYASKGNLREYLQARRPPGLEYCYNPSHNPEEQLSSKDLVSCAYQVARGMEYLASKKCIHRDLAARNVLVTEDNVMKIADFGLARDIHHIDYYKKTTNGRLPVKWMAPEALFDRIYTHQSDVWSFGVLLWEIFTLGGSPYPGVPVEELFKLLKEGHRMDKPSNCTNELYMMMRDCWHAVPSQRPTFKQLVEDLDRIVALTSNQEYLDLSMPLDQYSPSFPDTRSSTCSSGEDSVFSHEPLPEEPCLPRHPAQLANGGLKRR
Chain of Calcium/calmodulin-dependent protein kinase kinase 2 (Q96RR4 whole entry, canonical isoform): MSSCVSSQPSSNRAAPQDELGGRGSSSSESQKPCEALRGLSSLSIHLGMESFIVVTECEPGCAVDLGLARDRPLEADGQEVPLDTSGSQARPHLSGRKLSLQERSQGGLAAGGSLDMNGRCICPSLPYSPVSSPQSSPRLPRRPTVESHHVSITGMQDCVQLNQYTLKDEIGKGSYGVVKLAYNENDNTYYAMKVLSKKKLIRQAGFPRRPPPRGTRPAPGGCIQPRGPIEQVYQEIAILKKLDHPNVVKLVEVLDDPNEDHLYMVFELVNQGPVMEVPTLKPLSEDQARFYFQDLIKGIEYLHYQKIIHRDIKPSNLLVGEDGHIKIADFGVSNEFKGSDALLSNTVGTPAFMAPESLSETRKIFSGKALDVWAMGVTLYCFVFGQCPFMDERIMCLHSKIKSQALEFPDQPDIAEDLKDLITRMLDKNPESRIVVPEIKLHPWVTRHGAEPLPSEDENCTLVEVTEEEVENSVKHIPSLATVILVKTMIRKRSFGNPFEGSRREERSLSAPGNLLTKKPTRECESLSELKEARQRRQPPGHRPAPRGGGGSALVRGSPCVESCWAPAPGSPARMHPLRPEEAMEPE
Chain of Guanine nucleotide-binding protein G(i) subunit alpha-2 (P04899 whole entry): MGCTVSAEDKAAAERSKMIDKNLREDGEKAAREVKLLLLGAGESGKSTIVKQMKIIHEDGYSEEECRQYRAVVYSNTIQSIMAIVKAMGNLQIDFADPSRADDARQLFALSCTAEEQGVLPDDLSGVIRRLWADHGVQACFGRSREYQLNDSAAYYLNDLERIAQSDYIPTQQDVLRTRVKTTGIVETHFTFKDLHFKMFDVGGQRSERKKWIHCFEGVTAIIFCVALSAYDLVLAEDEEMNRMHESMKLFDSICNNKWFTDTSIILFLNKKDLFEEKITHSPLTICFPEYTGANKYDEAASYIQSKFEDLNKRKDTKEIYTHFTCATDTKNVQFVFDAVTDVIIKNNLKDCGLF

As for `Cc1ccc(C(=O)Nc2ccc(Oc3cc4cnn(C)c4cc3-c3cn[nH]c3)c(F)c2)c(=O)n1-c1ccc(F)cc1` [MERESTINIB], the Kd in [1], in [2], in [3], in [4], in experiment [5] and in [6] was > 30 µM (inactive) each time. The Kd in experiment [7] and in experiment [8] was > 30 µM (inactive) each time.
As to `CNC(=O)c1cc(COc2nnc(Nc3ccc(Cl)cc3)c3ccoc23)ccn1` [TELATINIB], the Kd in experiment [1], in experiment [2], in experiment [3], in experiment [4], in experiment [5] and in experiment [6] was > 30 µM (inactive) each time. In addition, the Kd in experiment [7] and in experiment [8] was > 30 µM (inactive) throughout.
On to `CC1(C)CNc2cc(NC(=O)c3cccnc3NCc3ccncc3)ccc21` [MOTESANIB], for which the Kd in [1], in experiment [3], in experiment [4], in [9] and in experiment [8] was > 30 µM (inactive) in each case.
Regarding `COc1cc2c(N3CCN(C(=O)Nc4ccc(OC(C)C)cc4)CC3)ncnc2cc1OCCCN1CCCCC1` [TANDUTINIB], the Kd in experiment [1] and in [4] was > 30 µM (inactive) throughout.
Regarding `COc1ccc(-c2ccc3ncc4c(c3c2)n(-c2ccc(N3CCNCC3)c(C(F)(F)F)c2)c(=O)n4C)cn1` [BGT-226 FREE BASE], the Kd in experiment [1], in [2], in experiment [3], in experiment [4], in experiment [5] and in experiment [6] was > 30 µM (inactive) throughout. The Kd in experiment [7] and in experiment [8] was > 30 µM (inactive) each time.
In the case of `CNC(=O)c1ccc(Nc2ncc(C(F)(F)F)c(NCc3nccnc3N(C)S(C)(=O)=O)n2)cc1` [DEFACTINIB], the Kd in experiment [1], in experiment [2], in experiment [3], in [4], in experiment [5] and in experiment [6] was > 30 µM (inactive) each time. For the same compound, the Kd in experiment [7] was > 30 µM (inactive); in experiment [8] it was 2.01 µM.
Consider `O=C(O)c1ccc2c(c1)nc(Nc1cccc(Cl)c1)c1ccncc12` [SILMITASERTIB], for which the Kd in experiment [1], in experiment [2], in [3], in [4], in experiment [5] and in experiment [6] was > 30 µM (inactive) throughout. Also, the Kd in experiment [7] is 3.5 µM (active).
`CN(C)C/C=C/C(=O)Nc1cc2c(Nc3ccc(F)c(Cl)c3)ncnc2cc1O[C@H]1CCOC1` [AFATINIB]: the Kd in [1], in [4], in [9] and in experiment [8] was > 30 µM (inactive) each time.
With `Cc1c(Cn2c(C)nc3c(C(=O)O)cc(N4CCOCC4)cc32)cccc1C(F)(F)F` [GSK-2636771], the Kd in experiment [1], in experiment [2], in [3], in experiment [4], in experiment [5] and in experiment [6] was > 30 µM (inactive) in each case. Also, the Kd in experiment [7] and in experiment [8] was > 30 µM (inactive) each time.
On to `COc1cc2ncnc(Nc3ccc(O)cc3)c2cc1OC` [WHI-P131], for which the Kd in experiment [1], in [2], in experiment [3], in experiment [4], in [5] and in experiment [6] was > 30 µM (inactive) throughout. Also, the Kd in experiment [7] and in [8] was > 30 µM (inactive) throughout.
As for `Cn1c(=O)c(F)c(Nc2ccc(I)cc2F)c2c(=O)n(C[C@@H](O)CO)cnc21` [TAK-733], the Kd in experiment [1], in experiment [2], in [4], in [5], in [6] and in [7] was > 30 µM (inactive) each time. Besides, the Kd in experiment [8] is > 30 µM (inactive).
As for `C[C@@H]1COC(Nc2ccc3ncnc(Nc4ccc(OCc5nccs5)c(Cl)c4)c3c2)=N1` [VARLITINIB], the Kd in experiment [1], in experiment [2], in experiment [3], in experiment [4], in [5] and in [6] was > 30 µM (inactive) in each case. The Kd in experiment [7] and in [8] was > 30 µM (inactive) each time.
On to `COc1cc2c(Oc3ccc4[nH]c(C)cc4c3F)ncnc2cc1OCCCN1CCCC1` [CEDIRANIB], for which the Kd in experiment [1], in experiment [3], in experiment [4] and in experiment [8] was > 30 µM (inactive) each time.
On to `CC[C@@](C)(Nc1ccnc(-c2c[nH]c3ncccc23)n1)C(=O)NCC(F)(F)F` [DECERNOTINIB], for which the Kd in experiment [1], in [2], in experiment [3], in experiment [4], in experiment [5] and in experiment [6] was > 30 µM (inactive) each time. In addition, the Kd in [7] and in experiment [8] was > 30 µM (inactive) each time.
Regarding `O=C(NOC[C@H](O)CO)c1ccc(F)c(F)c1Nc1ccc(I)cc1F` [MIRDAMETINIB], the Kd in experiment [1], in [2], in experiment [3], in [4], in experiment [5] and in [6] was > 30 µM (inactive) each time. The Kd in [7] and in experiment [8] was > 30 µM (inactive) throughout.
